Assay results published in US11788060B2, “Small molecule compound composition that efficiently induces differentiation of human pluripotent stem cells into myocardial cells” (Shanghai Institute of Nutrition and Health, Chinese Academy …, priority 2016, dated 2023).

Columns and labels:
stem cells [1] = test: Cell cycle analysis and BrdU cell proliferation assay; assay type: cell-based, human; settings: compared with DMSO control group
Method: After 10 μM BrdU (Sigma-Aldrich) was added to incubate the cells for 1 hour, cells were harvested, digested and centrifuged at 300 g for 5 minutes. Cells were collected, washed once with PBS containing 0.5% BSA (wash solution) at room temperature, and resuspended in 1 ml of PBS. 3 ml of pre-cooled ethanol was added with shaking and settled for 20 minutes at room temperature. Centrifuge to remove the supernatant, wash once with PBS, centrifuge to remove supernatant, loosen the pellet by flicking a few times, add 1 ml of the freshly prepared denaturation solution (2M HCl) and mix. Allow to stand at room temperature for 20 minutes; add 1 ml of 0.1 M sodium borate (pH 8.5) to neutralize for 2 minutes at room temperature; rinse once and add anti-BrdU antibody (BD Biosciences 1:50 dilution) prepared with PBS containing 0.5% Tween 20/0.5% BSA (Sigma-Aldrich); aspirate primary antibody, rinse with 1 ml wash solution, add Alexa-488-anti-mouse (1:1000), incubate for 20 minutes at room temperature; aspirate secondary antibody, rinse again, resuspend with 0.5 ml 10 μg/ml PI solution and incubate for 30 minutes at room temperature. The supernatant was removed by centrifugation, rinsed again with a wash solution, and tested with flow cytometry.

Parp = test: Western blot of Parp cleavage; assay type: cell-based, human; settings: first 4 days of treatment
Description: Wherein figure (A and B) show the influence of different small molecules on proliferation rate of the stem cells by means of cell cycle analysis and BrdU proliferation detection. (C) Western blot analysis of intracellular Parp protein cleavage to estimate cell death under different treatment. (D) Influence of rapamycin on activity of apoptosis executive caspase 3/7 determined by luciferase reporter system. (E) Detection of the proportion of cell death treated with or without rapamycin by Annexin V/PI staining at the end of the culture on day 3 and day 4. […] All the results are statistically analyzed for at least 3 independently repeated experiments (* P<0.05, ** P<0.01).
Caspase 3, 6, and 7 are the execution proteins of apoptosis and are mainly responsible for the cleavage of structural proteins and regulatory proteins in the nucleus and cytoplasm.

stem cells [2] = test: Annexin V/PI staining of apoptosis and cell death; assay type: cell-based, human
Method: Annexin V/PI staining: Annexin V/PI kit (Roche) was used in this experiment. The cells were cultured in 24-well plates. At the specified time, the cells were digested into single cells with accutase and washed once with PBS. The cells were incubated with staining solution containing Annexin V and PI for 10 minutes. Care was taken to avoid light. 5 volumes of incubation solution was added to dilute thereby stopping the reaction and tested by flow cytometry immediately, the excitation lights were 488 nm and 518 nm, the emission lights were 488-540 nm and 617 nm.

[3] = tested on: human embryonic stem cells; test: Cell count of stem cells in high-density monolayer culture; assay type: cell-based; settings: DMSO, CHIR or CHIR+rapamycin; 5×10^4/cm^2, days 1-4
Method: The correlated detection was performed under three treatment conditions of DMSO, CHIR and CHIR+rapamycin. […] (Due to the replacement of the culture medium on the 4th day, stem cells underwent massive death because of the rapid changes in the environment).

## Cc1c[nH]c(-c2cnc(NCCNc3ccc(C#N)cn3)nc2-c2ccc(Cl)cc2Cl)n1 [CHIR99021]
Stem cells [1]
  proportion of cells in S phase and proportion of BrdU positive cells: slightly increased
Parp
  Parp cleavage band: gradually increased
Stem cells [2]; 4th day, 24 hours after replacing with RPMI/B27 differentiation medium
  proportion of cell death: nearly half
Stem cells [2]; end of culture on the third day
  Annexin V-positive apoptotic cells: 25.8%
[3]
  stem cell number: accelerated the increase in stem cell number in the first 3 days
